Where two headings read alike, the source gives them in different places.
How the values were obtained:
[1] = target: T1, monomeric beta-amyloid 1-42 (Homo sapiens, UniProt P05067); assay: Thioflavin-T (ThT) assay, aggregate-prevention activity; format: biochemical; settings: for aggregate-prevention activity: curcumin 0.1, 1.0 or 10 μM, resveratrol 10 μM, quercetin 10 μM, 60 minutes; for aggregate-prevention compared with positive control phenol red (PhR): curcumin at 1 μM, resveratrol at 10 μM
T1 construct: 5 ng monomeric beta-amyloid (1-42) (Anaspec, Fremont, CA); purchased Anaspec, Fremont, CA
T1 sequence (P05067 672-713 limits assumed): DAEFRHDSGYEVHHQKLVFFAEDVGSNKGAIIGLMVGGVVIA
Excerpt: (§1) (A) De-aggregation activity of curcumin (C). […] (B) Aggregate-prevention activity of resveratrol (R), quercetin (Q), and curcumin (C).
(§2) The formation of beta-amyloid plaques in the brain is a major hallmark of Alzheimer's disease and is widely considered to be a key initial step in the disease progression. The aim of clinical trials for Alzheimer's disease has historically been to deaggregate or prevent the aggregation of beta-amyloid. Plaques are formed by aggregation of soluble monomeric beta-amyloid into insoluble oligomers, protofibrils, fibrils, and plaques. […] The most common method to evaluate beta-amyloid aggregation is the thioflavin-T (ThT) assay. ThT is a fluorescent probe that binds to beta-amyloid fibrils with specificity and is measurable at 482 nm when excited at 450 nm.
(§3) Curcumin (C) was evaluated at 0.1, 1.0, and 10 μM.

[2] = test system: superactivated platelets (SAPs); assay: In vitro synergy analysis: SAP formation with and without R, Q, C combinations, flow cytometry, Combination Index (Chou-Talalay); format: cell-based, human
Experimental: The “effective amount” or “therapeutically effective amount” also may be determined by using methods known in the art such as the in vitro flow cytometry assay to evaluate the effectiveness of multiple RQC combinations on platelet activation. All possible combinations of pre-defined “low”, “medium”, and “high” doses of R, Q, and C, respectively, are tested to determine the optimal dose combination. […] A venipuncture sample of 10 mL of blood is obtained from each patient. Of the 10 mL, a 3 mL aliquot of blood is added to a tube containing 0.5 mL of acid-citrate-dextrose solution (38 mM citric acid, 75 mM sodium citrate, 135 mM glucose) to prevent clotting. […] The PRP is transferred to a new tube, leaving about 0.5 mL above the buffy coat layer. […] Platelets are then treated with biotinylated fibrinogen and stained with the following fluorophores: APC-streptavidin (APC-SA), FITC-PAC1, and PE-anti-CD41. PE-anti-CD41 recognizes the platelet-specific, transmembrane protein CD41. FITC-PAC1 identifies activated platelets by recognizing […] which increases its expression at the surface upon activation. APC-SA recognizes superactivated platelets that more readily bind the biotinylated fibrinogen to their surface. Each sample is analyzed by a Beckman Coulter CyAn flow cytometer (Beckman Coulter, Fullerton, CA). Results are analyzed by the Summit program (Beckman Coulter). […] Thus, abnormally high SAP levels are indicative of microvascular disease. […] To evaluate synergistic drug effects, the Combination Index (CI) theorem derived by Chou-Talalay was calculated for each combination product of R, Q, and C. The CI is useful in quantifying levels of synergism and antagonism. The theorem is based on the median-effect equation to provide a common link between a single entity and multiple entities. […] Baseline differences in untreated SAP levels can be adjusted for by evaluating the proportion of total platelets that are sensitive or resistant to treatment (Table 16). This technique adjusts for overall differences in SAP levels between various disease types. […] In AD subjects (n=9), the total number of platelets sensitive to RQC was higher than in healthy controls (n=20). […] The number of sensitive platelets was higher in AD subjects with higher SAP levels while the number of resistant platelets remained largely equivalent.

[3] = test system: superactivated platelets (SAPs); assay: SAP inhibition by combinatorial drug treatment (flow cytometry of platelet rich plasma activated with thrombin and convulxin); format: cell-based, human; settings: 10 μM, 30 minutes at 37° C., normalized relative to Control
Experimental: A venipuncture sample of 10 mL of blood is obtained from each patient. Of the 10 mL, a 3 mL aliquot of blood is added to a tube containing 0.5 mL of acid-citrate-dextrose solution (38 mM citric acid, 75 mM sodium citrate, 135 mM glucose) to prevent clotting. […] After centrifuging at 1100 rpm for 10 minutes at room temperature, platelet rich plasma (PRP), which is the upper layer, is removed. The PRP is transferred to a new tube, leaving about 0.5 mL above the buffy coat layer. The PRP-containing tube is incubated with 10 μL of thrombin and convulxin, two agonists that activate the platelets, for five minutes. Platelets are then treated with biotinylated fibrinogen and stained with the following fluorophores: APC-streptavidin (APC-SA), FITC-PAC1, and PE-anti-CD41. PE-anti-CD41 recognizes the platelet-specific, transmembrane protein CD41. FITC-PAC1 identifies activated platelets by recognizing […] which increases its expression at the surface upon activation. APC-SA recognizes superactivated platelets that more readily bind the biotinylated fibrinogen to their surface.
All fluorophores are excited at 488 nm by argon laser of the flow cytometer. Their emission spectra are well separated, thereby allowing simultaneous, multi-color immunofluorescence measurements.
Each sample is analyzed by a Beckman Coulter CyAn flow cytometer (Beckman Coulter, Fullerton, CA). Results are analyzed by the Summit program (Beckman Coulter). Data analysis is conducted for SAPs after flow cytometry using the Summit program to determine the relative percentages of each of these groups per sample. The SAPs are expressed as a percentage of the total number of events in the sample.
Isolation and flow cytometry of SAPs was performed according to the procedure described in Example 1, above.
Aliquots of platelet rich plasma (PRP) were incubated with aqueous saline solutions of resveratrol only, quercetin only, […], and with an admixture of resveratrol, quercetin and curcumin for a time period of 30 minutes at 37° C. Thereafter the obtained PRP samples were irradiated by an argon laser at […]. Multi-color immunofluorescence was noted, and analyzed as described in Example 1, above.

[4] = target: beta-amyloid (1-42) oligomers (Homo sapiens, UniProt P05067); assay: Thioflavin-T (ThT) assay, de-aggregation of pre-aggregated beta-amyloid; format: biochemical; settings: for reduced aggregation of pre-aggregated beta-amyloid (1-42): over 8 days, 37° C.; for de-aggregation activity (words): 0.1, 1.0, 10 μM, 2 hours, 3 days, 8 days
Chain of beta-amyloid (1-42) oligomers (P05067 672-713 limits assumed): as above
Excerpt: as §1, §2, §3

[5] = test system: beta-amyloid oligomers; settings: cited from earlier work
[6] = test system: beta-amyloid fibrils; settings: cited from earlier work

## O=c1c(O)c(-c2ccc(O)c(O)c2)oc2cc(O)cc(O)c12 [Quercetin, 3,3′,4′5,7-pentahydroxy-2-phenylchromen-4-one]
[1]
  aggregate-prevention activity: inhibited the formation of new beta-amyloid aggregates
[2]; Q 1 μM, AD patient
  % Change: −7%
  SAP %: 34.3%
[2]; Q 5 μM, AD patient
  % Change: −27%
  SAP %: 26.7%
[2]; Q 10 μM, AD patient
  % Change: −44%
  SAP %: 20.6%
[2]; control subject, Q 1 μM
  % Change: −8%
  SAP %: 34.2%
[2]; control subject, Q 5 μM
  % Change: −13%
  SAP %: 32.5%
[2]; control subject, Q 10 μM
  % Change: −23%
  SAP %: 28.6%
In vivo; cited from earlier work
  Half-life: 3 to 17 h
oral, estimation; cited from earlier work
  Bioavailability: 0.2-0.3%
oral; estimation; cited from earlier work
  Bioavailability: 0.2-0.3%
[3]
  % Reduction in SAPs: 77.8%
  % SAPs: 22.2%

## COc1cc(/C=C/C(=O)CC(=O)/C=C/c2ccc(O)c(OC)c2)ccc1O [Curcumin, (1E,6E)-1,7-bis(4-Hydroxy-3-methoxyphenyl)-1,6-heptadiene-3,5-dione]
[4]; 0.1 μM
  reduced aggregation of pre-aggregated beta-amyloid (1-42): about 18.6%
[4]; 1.0 μM
  reduced aggregation of pre-aggregated beta-amyloid (1-42): ~51.8%
[4]; 10 μM
  reduced aggregation of pre-aggregated beta-amyloid (1-42): ~64.7%
[4]
  de-aggregation activity (words): de-aggregated beta-amyloid oligomers in a dose-dependent manner at all time points
[4]; listed as curcumin
  de-aggregation activity (words): dose-dependently de-aggregated existing beta-amyloid oligomers
[1]
  aggregate-prevention activity: inhibited the formation of new beta-amyloid aggregates
  aggregate-prevention compared with positive control phenol red (PhR): approximately as effective as the positive control phenol red
[2]; C 0.01 μM, AD patient
  % Change: −11%
  SAP %: 32.5%
[2]; C 0.1 μM, AD patient
  % Change: −18%
  SAP %: 30.0%
[2]; C 1 μM, AD patient
  % Change: −37%
  SAP %: 23.2%
[2]; control subject, C 0.01 μM
  % Change: −2%
  SAP %: 36.6%
[2]; control subject, C 0.1 μM
  % Change: −7%
  SAP %: 34.6%
[2]; control subject, C 1 μM
  % Change: −12%
  SAP %: 32.9%
[5]
  IC50: 800 nM
[6]
  IC50: 1000 nM

## Oc1ccc(/C=C/c2cc(O)cc(O)c2)cc1 [Resveratrol, 3,5,4′-trihydroxy-trans-stilbene]
[1]
  aggregate-prevention activity: inhibited the formation of new beta-amyloid aggregates
  aggregate-prevention compared with positive control phenol red (PhR): approximately as effective as the positive control phenol red
[2]; R 1 μM, AD patient
  % Change: −9%
  SAP %: 33.6%
[2]; R 5 μM, AD patient
  % Change: −17%
  SAP %: 30.5%
[2]; R 10 μM, AD patient
  % Change: −19%
  SAP %: 29.9%
[2]; control subject, R 1 μM
  % Change: −9%
  SAP %: 33.9%
[2]; control subject, R 5 μM
  % Change: −24%
  SAP %: 28.2%
[2]; control subject, R 10 μM
  % Change: −29%
  SAP %: 26.3%
[3]
  % Reduction in SAPs: 46.6%
  % SAPs: 53.4%

Reference: US12576044B2, “Treatment of Alzheimer's disease” (priority 2015, dated 2026)
